Data published in patent US8222280B2, “Ether compounds with nitrogen-containing 5-member heterocycle and uses thereof” (Sinochem Corporation, priority 2008, dated 2012).

What was measured:
[1] = tested on: second instar larvae of diamond backmoth (Plutella xylostella); test: Insecticidal activity against diamond backmoth, leaf disc spraying by airbrush; assay type: in vivo; settings: mortality after 72 hrs, sprayed cabbage leaf disc
Procedure: To determine the insecticidal and acaricidal activity of selected compounds by the following procedures:
Compounds were dissolved in mixed solvent (acetone:methanol=1:1), and diluted to required concentration with water containing 0.1% of tween 80.
The second instar larvae of diamond backmoth (Plutella xylostella) were used in biological test. The method of spraying by airbrush was employed.
Determination of insecticidal activity against diamond backmoth: The cabbage leaves were made into plates of 1 cm diameter by punch. A test solution (0.5 ml) was sprayed by airbrush at the pressure of 0.7 kg/cm^2 to both sides of every plate. 10 Second instar larvae were put into the petri-dishes after the leaf disc air-dried and 3 replicates were set for each treatment. Then the insects were maintained in observation room ([…], 60-70% R.H.). Scores were conducted and mortalities were calculated after 72 hrs.

[2] = tested on: wheat powdery mildew; test: Fungicidal activity in vivo on potted plants; settings: 400 ppm; sprayed on potted plant, inoculation after 24 hours, visual assessment after about 1 week
Procedure: Determination of fungicidal activities against plant diseases of selected compounds were carried out by the following procedure:
Determination of Fungicidal Activity In Vivo:
Plants were prepared in pot. Compounds were dissolved in acetone and diluted to required concentration by water containing 0.1% (wt) Tween80. Test solution was sprayed onto potted plant. Pathogen inoculation was carried out after 24 hours, then plants were hold in growth chambers maintaining constant temperature and moisture for infection. When untreated plant was under desirable disease severity (after 1 week approximately), assessment was carried out by visual observation.

| SMILES | control of the second instar larvae of diamond backmoth ([1]; dose 100 mg/L) [%] | further results |
| --- | --- | --- |
| Cn1nc(-c2ccccc2)cc1OCCCOc1c(Cl)cc(OCC=C(Cl)Cl)cc1Cl [Compound 1] | 100 | – |
| Cn1nc(-c2ccc(Cl)cc2)cc1OCCCOc1c(Cl)cc(OCC=C(Cl)Cl)cc1Cl [Compound 2] | 100 | control of wheat powdery mildew [2]: more than 70%; control of the second instar larvae of diamond backmoth ([1]; dose 25 mg/L): 100% |
| CSc1ccc(-c2cc(OCCCOc3c(Cl)cc(OCC=C(Cl)Cl)cc3Cl)n(C)n2)cc1 [Compound 8] | 100 | – |
| Cn1nc(-c2ccc(Cl)cc2Cl)cc1OCCCOc1c(Cl)cc(OCC=C(Cl)Cl)cc1Cl [Compound 11] | 100 | – |
| COc1ccc(-c2cc(OCCCOc3c(Cl)cc(OCC=C(Cl)Cl)cc3Cl)n(C)n2)cc1 [Compound 13] | 100 | – |
| Cn1nc(-c2ccc(Br)cc2)cc1OCCCOc1c(Cl)cc(OCC=C(Cl)Cl)cc1Cl [Compound 16] | 100 | – |
| Cc1ccc(-c2cc(OCCCOc3c(Cl)cc(OCC=C(Cl)Cl)cc3Cl)n(C)n2)cc1 [Compound 17] | 100 | – |
| CCc1ccc(-c2cc(OCCCOc3c(Cl)cc(OCC=C(Cl)Cl)cc3Cl)n(C)n2)cc1 [Compound 18] | 100 | – |
| COc1ccccc1-c1cc(OCCCOc2c(Cl)cc(OCC=C(Cl)Cl)cc2Cl)n(C)n1 [Compound 24] | 100 | – |
| Cc1ccc(-c2cc(OCCCOc3c(Cl)cc(OCC=C(Cl)Cl)cc3Cl)n(C)n2)c(C)c1 [Compound 26] | 100 | – |
| CCCc1ccc(-c2cc(OCCCOc3c(Cl)cc(OCC=C(Cl)Cl)cc3Cl)n(C)n2)cc1 [Compound 38] | 100 | – |
| Cc1c(-c2ccccc2)nn(C)c1OCCCOc1c(Cl)cc(OCC=C(Cl)Cl)cc1Cl [Compound 76] | 100 | – |
| Cc1c(-c2ccc(Cl)cc2)nn(C)c1OCCCOc1c(Cl)cc(OCC=C(Cl)Cl)cc1Cl [Compound 77] | 100 | – |
| Cc1c(-c2ccc(Cl)cc2Cl)nn(C)c1OCCCOc1c(Cl)cc(OCC=C(Cl)Cl)cc1Cl [Compound 86] | 100 | – |
| Cc1ccc(-c2nn(C)c(OCCCOc3c(Cl)cc(OCC=C(Cl)Cl)cc3Cl)c2C)cc1 [Compound 92] | 100 | – |
| Cn1nc(-c2ccc(Cl)cc2)cc1OCCOc1c(Cl)cc(OCC=C(Cl)Cl)cc1Cl [Compound 225] | 100 | control of the second instar larvae of diamond backmoth ([1]; dose 25 mg/L): 100% |
| Cn1nc(-c2ccc(Cl)cc2)cc1OCCCCOc1c(Cl)cc(OCC=C(Cl)Cl)cc1Cl [Compound 247] | 100 | control of the second instar larvae of diamond backmoth ([1]; dose 25 mg/L): 100% |
| Cn1nc(-c2ccc(Cl)cc2)cc1OCCCCOc1ccc(OCC=C(Cl)Cl)cc1Cl [Compound 248] | 100 | control of the second instar larvae of diamond backmoth ([1]; dose 25 mg/L): 100% |
| Cc1c(-c2ccccc2)nn(C)c1OCCCCOc1c(Cl)cc(OCC=C(Cl)Cl)cc1Cl [Compound 257] | 100 | – |
| Cn1nc(OCCCOc2c(Cl)cc(OCC=C(Cl)Cl)cc2Cl)cc1-c1ccccc1 [Compound 268] | 100 | control of the second instar larvae of diamond backmoth ([1]; dose 25 mg/L): 100% |
| Cn1nc(OCCCOc2c(Cl)cc(OCC=C(Cl)Cl)cc2Cl)cc1-c1ccc(Cl)cc1 [Compound 269] | 100 | control of the second instar larvae of diamond backmoth ([1]; dose 25 mg/L): 100% |
| Cn1nc(OCCCOc2c(Cl)cc(OCC=C(Cl)Cl)cc2Cl)cc1-c1ccc(Cl)cc1Cl [Compound 278] | 100 | – |

| SMILES | control of the second instar larvae of diamond backmoth ([1]; dose 100 mg/L) [%] | further results |
| --- | --- | --- |
| COc1ccc(-c2cc(OCCCOc3c(Cl)cc(OCC=C(Cl)Cl)cc3Cl)nn2C)cc1 [Compound 280] | 100 | – |
| Cn1nc(OCCCOc2c(Cl)cc(OCC=C(Cl)Cl)cc2Cl)cc1-c1ccc(Br)cc1 [Compound 283] | 100 | – |
| Cc1ccc(-c2cc(OCCCOc3c(Cl)cc(OCC=C(Cl)Cl)cc3Cl)nn2C)cc1 [Compound 284] | 100 | – |
| Cc1ccc(-c2cc(OCCCOc3c(Cl)cc(OCC=C(Cl)Cl)cc3Cl)nn2C)c(C)c1 [Compound 293] | 100 | – |
| Cn1nc(OCCCOc2c(Cl)cc(OCC=C(Cl)Cl)cc2Cl)cc1-c1ccc(C(C)(C)C)cc1 [Compound 306] | 100 | – |
| Cc1c(OCCCOc2c(Cl)cc(OCC=C(Cl)Cl)cc2Cl)nn(C)c1-c1ccc(F)cc1 [Compound 352] | 100 | control of the second instar larvae of diamond backmoth ([1]; dose 25 mg/L): 100% |
| CCOc1ccc(-c2c(C)c(OCCCOc3c(Cl)cc(OCC=C(Cl)Cl)cc3Cl)nn2C)cc1 [Compound 356] | 100 | – |
| Cc1c(OCCCOc2c(Cl)cc(OCC=C(Cl)Cl)cc2Cl)nn(C)c1-c1ccc(Cl)cc1Cl [Compound 360] | 100 | – |
| Cc1c(OCCCOc2c(Cl)cc(OCC=C(Cl)Cl)cc2Cl)nn(C)c1-c1ccc(Cl)c(Cl)c1 [Compound 361] | 100 | – |
| COc1ccc(-c2c(C)c(OCCCOc3c(Cl)cc(OCC=C(Cl)Cl)cc3Cl)nn2C)cc1 [Compound 363] | 100 | – |
| Cc1ccc(-c2c(C)c(OCCCOc3c(Cl)cc(OCC=C(Cl)Cl)cc3Cl)nn2C)cc1 [Compound 367] | 100 | control of the second instar larvae of diamond backmoth ([1]; dose 25 mg/L): 100% |
| CCc1ccc(-c2c(C)c(OCCCOc3c(Cl)cc(OCC=C(Cl)Cl)cc3Cl)nn2C)cc1 [Compound 368] | 100 | – |
| Cc1ccc(-c2c(C)c(OCCCOc3c(Cl)cc(OCC=C(Cl)Cl)cc3Cl)nn2C)cc1C [Compound 377] | 100 | control of the second instar larvae of diamond backmoth ([1]; dose 25 mg/L): 100% |
| Cc1c(OCCCOc2c(Cl)cc(OCC=C(Cl)Cl)cc2Cl)nn(C)c1-c1ccc(C(C)C)cc1 [Compound 387] | 100 | control of the second instar larvae of diamond backmoth ([1]; dose 25 mg/L): 100% |
| Cc1c(OCCCOc2c(Cl)cc(OCC=C(Cl)Cl)cc2Cl)nn(C)c1-c1ccc(C(C)(C)C)cc1 [Compound 389] | 100 | – |
| Cn1nc(OCCOc2c(Cl)cc(OCC=C(Cl)Cl)cc2Cl)cc1-c1ccc(Cl)cc1 [Compound 500] | 100 | – |
| Cn1nc(OCCCCOc2c(Cl)cc(OCC=C(Cl)Cl)cc2Cl)cc1-c1ccc(Cl)cc1 [Compound 522] | 100 | – |
| Cc1c(OCCCCOc2c(Cl)cc(OCC=C(Cl)Cl)cc2Cl)nn(C)c1-c1ccccc1 [Compound 532] | 100 | – |
| Cc1ccc(-c2c(C)c(OCCCCOc3c(Cl)cc(OCC=C(Cl)Cl)cc3Cl)nn2C)cc1 [Compound 538] | 100 | – |
| ClC(Cl)=CCOc1cc(Cl)c(OCCCOc2cnn(-c3ccc(Cl)cc3)c2)c(Cl)c1 [Compound 546] | 100 | – |
| FC(F)(F)c1ccc(OCCCOc2c(Cl)cc(OCC=C(Cl)Cl)cc2Cl)nc1 [pyridalyl, Pyridalyl, reference compound] | 100 | control of the second instar larvae of diamond backmoth ([1]; dose 6.25 mg/L): 65%; control of the second instar larvae of diamond backmoth ([1]; dose 25 mg/L): 100% |
